According to US6787525B1, “Glyceryl nucleotides, method for the production thereof and their use” (priority 1998, dated 2004):

Tests used:
HOP-92 = assay: In vitro cytostatic effect (SRB): HOP-92, Lung cancer
A498 = assay: In vitro cytostatic effect (SRB): A498, Kidney cancer
MCF7 = assay: In vitro cytostatic effect (SRB): MCF7, Breast cancer
[1] = read-out: LC50, 48-hour incubation

For `CCCCCCCCCCCCCCCCCCOC(COP(=O)(O)OCC1OC(n2cc(F)c(=O)[nH]c2=O)CC1O)COP(=O)(O)OCC1OC(n2ccc(N)nc2=O)C(O)C1O` (racemic) [NSC 698688-A/1, arabinocytidylyl-(5′→1)-2-O-octadecyl-rac-glycerylyl-(3→5′)-5-fluoro-2′-deoxyuridine], the GI50 (HOP-92; 48-hour incubation) was 80.2 nM, the TGI (HOP-92; 48-hour incubation) was 8.99E − 05 mol/l and the CC50 (HOP-92; [1]) was greater than 100000 nM. For the same compound, the GI50 (A498; 48-hour incubation) was 319 nM, the TGI (A498; 48-hour incubation) was greater than 1.00E − 04 mol/l and the CC50 (A498; [1]) was greater than 100000 nM. For the same compound, the GI50 (MCF7; 48-hour incubation) was 170 nM, the TGI (MCF7; 48-hour incubation) was greater than 1.00E − 04 mol/l and the CC50 (MCF7; [1]) was greater than 100000 nM.
